Reference: ChEMBL document CHEMBL4842359, “1,3-Diarylpyrazolyl-acylsulfonamides as Potent Anti-tuberculosis Agents Targeting Cell Wall Biosynthesis in Mycobacterium tuberculosis” (J Med Chem, 2021)
Values after ≈ are worked out from the molar mass of the structure shown.

Columns and labels:
[1] = AUC (0 to t) in iv dosed C57BL/6 mouse measured up to 24 hrs by LC-MS/MS analysis; type: ADME, organism-based; design: time <=24; conditions: in vivo
[2] = Unbound clearance in iv dosed C57BL/6 mouse measured up to 24 hrs by LC-MS/MS analysis; type: ADME, organism-based; conditions: in vivo
[3] = Metabolic stability in human liver microsomes assessed as compound remaining at 1 uM by LC-MS/MS analysis; type: ADME, Microsome; conditions: microsomes, 1 µM
[4] = Metabolic stability in mouse liver microsomes assessed as compound remaining at 1 uM by LC-MS/MS analysis; type: ADME, Microsome; conditions: microsomes, 1 µM
[5] = tested on: Mycobacterium tuberculosis; test: microbe, parasite or virus in culture; conditions: H37Rv, 336 h
Description: Antimycobacterial activity against Mycobacterium tuberculosis H37Rv in presence of middlebrook 7H9/glucose/BSA/tyloxapol medium measured after 14 days by bioluminescence reporter assay

[6] = Plasma protein binding in human assessed as unbound fraction at 5 uM by LC-MS/MS analysis; type: ADME, cell-free; conditions: 5 µM
[7] = Terminal half life in iv dosed C57BL/6 mouse measured up to 24 hrs by LC-MS/MS analysis; type: ADME, organism-based; conditions: mouse, in vivo, 24 h
[8] = Lipophilicity, logD of the compound at pH 7.4 by HPLC-DAD analysis; type: physicochemical; conditions: buffer
[9] = Thermodynamic solubility of compound at pH 7.4 aqueous phosphate buffer
[10] = Metabolic stability in rat liver microsomes assessed as compound remaining at 1 uM by LC-MS/MS analysis; type: ADME, Microsome; conditions: microsomes, 1 µM

SMILES | MIC [5] [µM] | solubility thermodynamic [9] [µM] | other results
CS(=O)(=O)NC(=O)/C=C/c1cn(-c2ccc(Cl)cc2)nc1-c1ccncc1 | 4.7 (≈ 1.89 µg/mL) | 90 (≈ 36.3 µg/mL) | AUCt [1]: 8.7 µmol·min/L; CL free [2]: > 1200 L/h/kg; Stabilty [3]: 88%; Stabilty [4]: 85%; Fu [6]: 0.015 fraction; beta t1/2 [7]: 1.1 h; logD [8]: 0.98; Stabilty [10]: 82%
CS(=O)(=O)NC(=O)CCc1cn(-c2ccc(C(F)(F)F)cc2)nc1-c1ccc(Cl)cc1 | 3.1 (≈ 1.46 µg/mL) | 50 (≈ 23.6 µg/mL) | –
CS(=O)(=O)NC(=O)CCc1cc(-c2ccc(Br)cc2)n(-c2ccc(Cl)cc2)n1 | > 50 | 170 (≈ 82.1 µg/mL) | –
O=c1[nH]c(CCc2cn(-c3ccc(Br)cc3)nc2-c2ccc(Cl)cc2)no1 | 50 (≈ 22.3 µg/mL) | < 5 | –
O=C(O)CCc1cn(-c2ccc(Br)cc2)nc1-c1ccc(Cl)cc1 | > 50 | 155 (≈ 62.9 µg/mL) | –
CC(Cc1cn(-c2ccc(Cl)cc2)nc1-c1ccncc1)C(=O)NS(C)(=O)=O (stereo unspecified) | > 50 | 190 (≈ 79.6 µg/mL) | –
CS(=O)(=O)NC(=O)CCc1cn(-c2ccccc2)nc1-c1ccc(Cl)cc1 | > 50 | 200 (≈ 80.8 µg/mL) | –
CS(=O)(=O)NC(=O)CCc1cn(-c2ccc(Br)cc2)nc1-c1ccccc1 | 2.3 (≈ 1.03 µg/mL) | 200 (≈ 89.7 µg/mL) | –
CS(=O)(=O)NC(=O)CCc1cn(-c2ccc(Br)cc2)nc1-c1cnccn1 | 20 (≈ 9.01 µg/mL) | 196 (≈ 88.3 µg/mL) | –
CCS(=O)(=O)NC(=O)CCc1cn(-c2ccc(Br)cc2)nc1-c1ccc(Cl)cc1 | – | 10 (≈ 4.97 µg/mL) | –
CS(=O)(=O)NC(=O)CCc1cn(-c2cccc(Br)c2)nc1-c1ccc(Cl)cc1 | > 50 | < 5 | –
CS(=O)(=O)NC(=O)CCc1cc(-c2ccc(Cl)cc2)nn1-c1ccc(F)cc1 | 5.5 (≈ 2.32 µg/mL) | 195 (≈ 82.3 µg/mL) | –
O=c1[nH]nc(CCc2cn(-c3ccc(Br)cc3)nc2-c2ccc(Cl)cc2)o1 | 19 (≈ 8.47 µg/mL) | < 5 | –
CS(=O)(=O)NC(=O)CCc1cn(-c2ccc(Br)cc2)nc1Cc1ccccc1 | > 50 | 200 (≈ 92.5 µg/mL) | –
CS(=O)(=O)NC(=O)NCc1cc(-c2ccc(Br)cc2)oc1-c1ccncc1 | – | 25 (≈ 11.3 µg/mL) | AUCt [1]: 20 µmol·min/L; CL free [2]: > 1200 L/h/kg; Stabilty [3]: 98%; Stabilty [4]: 85%; logD [8]: 0.36; Stabilty [10]: 87%
CS(=O)(=O)NC(=O)NCc1cn(-c2ccc(C(F)(F)F)nc2)nc1-c1ccncc1 | – | 195 (≈ 85.9 µg/mL) | –
CS(=O)(=O)NC(=O)CCc1cn(-c2ccc(Br)cc2)nc1-c1ccc([N+](=O)[O-])cc1 | – | < 5 | –
CS(=O)(=O)NC(=O)CCc1nn(-c2ccc(Br)cc2)cc1-c1ccc(Cl)cc1 | 37 (≈ 17.9 µg/mL) | 135 (≈ 65.2 µg/mL) | –
C[S+]([O-])c1ccc(-n2cc(CCC(=O)NS(C)(=O)=O)c(-c3ccc(Cl)cc3)n2)cc1 (stereo unspecified) | ≥ 50 | 200 (≈ 93.2 µg/mL) | –
CS(=O)(=O)NC(=O)CCCc1cn(-c2ccc(Br)cc2)nc1-c1ccc(Cl)cc1 | 37 (≈ 18.4 µg/mL) | 135 (≈ 67.1 µg/mL) | –
CS(=O)(=O)NC(=O)CCn1nc(-c2ccc(Cl)cc2)cc1-c1ccc(Cl)cc1 | > 50 | 200 (≈ 87.7 µg/mL) | –
CS(=O)(=O)NC(=O)C1CC1c1cn(-c2ccc(Cl)cc2)nc1-c1ccncc1 (stereo unspecified) | 19 (≈ 7.92 µg/mL) | 200 (≈ 83.4 µg/mL) | AUCt [1]: 21 µmol·min/L; CL free [2]: > 1200 L/h/kg; Stabilty [3]: > 99%; Stabilty [4]: 96%; Fu [6]: 0.01 fraction; beta t1/2 [7]: 0.9 h; logD [8]: 1.06; Stabilty [10]: 92%
CS(=O)(=O)NC(=O)NCc1cn(-c2ccc(Cl)cc2)nc1-c1ccc(Cl)cc1 | 3.13 (≈ 1.38 µg/mL) | < 5 | –
CC(CC(=O)NS(C)(=O)=O)c1cn(-c2ccc(Cl)cc2)nc1-c1ccncc1 (stereo unspecified) | 50 (≈ 20.9 µg/mL) | 170 (≈ 71.2 µg/mL) | –

SMILES | MIC [5] [µM] | solubility thermodynamic [9] [µM] | other results
CN(C(=O)CCc1cn(-c2ccc(Br)cc2)nc1-c1ccc(Cl)cc1)S(C)(=O)=O | > 50 | < 5 | –
CS(=O)(=O)NC(=O)CCc1cn(C2CCCCC2)nc1-c1ccc(Cl)cc1 | > 50 | 200 (≈ 82 µg/mL) | –
O=C1NC(=O)C(Cc2cn(-c3ccc(Cl)cc3)nc2-c2ccc(Cl)cc2)C(=O)N1 | > 50 | – | –
CS(=O)(=O)NC(=O)CCc1oc(-c2ccc(Cl)cc2)nc1-c1ccc(Cl)cc1 | 37 (≈ 16.3 µg/mL) | 200 (≈ 87.9 µg/mL) | –
CS(=O)(=O)NC(=O)CCc1cn(-c2ccc(Cl)cc2)nc1-c1ccccc1Cl | > 50 | 90 (≈ 39.5 µg/mL) | –
CS(=O)(=O)NC(=O)CCc1cn(-c2ccc(Br)cc2)nc1C1CCCCC1 | 9.4 (≈ 4.27 µg/mL) | 60 (≈ 27.3 µg/mL) | –
CS(=O)(=O)NC(=O)CCc1cn(-c2ccc(Br)cc2)nc1-c1cccc(Cl)c1 | – | 165 (≈ 79.7 µg/mL) | –
CS(=O)(=O)NC(=O)CCc1cn(-c2ccccc2Br)nc1-c1ccc(Cl)cc1 | > 50 | 165 (≈ 79.7 µg/mL) | –
CS(=O)(=O)NC(=O)C1CC1c1cn(-c2ccc(Br)cc2)nc1-c1ccncc1 (stereo unspecified) | 12.5 (≈ 5.77 µg/mL) | 155 (≈ 71.5 µg/mL) | –
O=C(CCc1cn(-c2ccc(Br)cc2)nc1-c1ccc(Cl)cc1)NS(=O)(=O)C1CC1 | > 50 | 5 (≈ 2.54 µg/mL) | –
CC(=O)NS(=O)(=O)CCc1cn(-c2ccc(Br)cc2)nc1-c1ccc(Cl)cc1 | > 50 | 165 (≈ 79.7 µg/mL) | –
CS(=O)(=O)NC1=NOC(c2cn(-c3ccc(Cl)cc3)nc2-c2ccc(Cl)cc2)C1 (stereo unspecified) | 25 (≈ 11.3 µg/mL) | 175 (≈ 79 µg/mL) | –
CS(=O)(=O)NC(=O)CCc1cn(-c2ccc(F)cc2)nc1-c1ccc(Cl)cc1 | 37 (≈ 15.6 µg/mL) | 25 (≈ 10.5 µg/mL) | –
CS(=O)(=O)NC(=O)CCc1sc(-c2ccc(Cl)cc2)nc1-c1ccc(Cl)cc1 | 19 (≈ 8.65 µg/mL) | 90 (≈ 41 µg/mL) | –
CS(=O)(=O)NC(=O)CCc1cn(-c2ccc(Br)cc2)nc1C1CCNCC1 | > 50 | 196 (≈ 89.3 µg/mL) | –
CS(=O)(=O)NC(=O)Cc1cn(-c2ccc(Br)cc2)nc1-c1ccc(Cl)cc1 | > 50 | – | –
CS(=O)(=O)NC(=O)CCc1cn(-c2ccc(Br)cc2)nc1-c1ccc(N)cc1 | 25 (≈ 11.6 µg/mL) | 160 (≈ 74.1 µg/mL) | –
Clc1ccc(-c2nn(-c3ccc(Br)cc3)cc2CCc2nnn[nH]2)cc1 | > 50 | 150 (≈ 64.5 µg/mL) | –
CS(=O)(=O)NC(=O)CCc1cn(-c2ccc(C#N)cc2)nc1-c1ccc(Cl)cc1 | 25 (≈ 10.7 µg/mL) | 75 (≈ 32.2 µg/mL) | –
CS(=O)(=O)NCCCc1cn(-c2ccc(Br)cc2)nc1-c1ccc(Cl)cc1 | > 50 | < 5 | –
CNC(=O)CCc1cn(-c2ccc(Br)cc2)nc1-c1ccc(Cl)cc1 | > 50 | < 5 | –
CS(=O)(=O)NC(=O)/C=C/c1cn(-c2ccc(Br)cc2)nc1-c1ccncc1 | 12 (≈ 5.37 µg/mL) | 115 (≈ 51.4 µg/mL) | –
CS(=O)(=O)NC(=O)CCc1cn(-c2ccncc2)nc1-c1ccc(Cl)cc1 | > 50 | 190 (≈ 76.9 µg/mL) | –
CS(=O)(=O)NC(=O)CCc1cn(-c2ccc(Br)cc2)nc1C1CCN(C=O)CC1 | 50 (≈ 24.2 µg/mL) | 200 (≈ 96.7 µg/mL) | –
